#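 1) Cells in 96-well plates. 2) Compound, 48 h, 5 concentrations. 3) Linear interpolation between surrounding doses. 4) Unreached endpoint = highest concentration. GI50 = concentration required for 50% inhibition of growth.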 The source made the active and inactive calls. No stated cut-off is given here; in the data, active = GI50 up to about 1.1 µM and inactive = higher. Peptide text beside a SMILES is read from it. * marks the point of attachment. Boc = CC(C)(C)OC(=O)*
# Columns and labels:
# Assay in all cases: NCI tumour cell line growth inhibition, 48 h
# RPMI-8226 = test system: RPMI-8226
# 786-0 = test system: 786-0
# MDA-MB-231 = test system: MDA-MB-231
# HCT-116 = test system: HCT-116
# SK-MEL-28 = test system: SK-MEL-28
# NCI-H460 = test system: NCI-H460
# HOP-62 = test system: HOP-62
# DU-145 = test system: DU-145
# SNB-19 = test system: SNB-19
# HOP-92 = test system: HOP-92
# SF-295 = test system: SF-295
# PC-3 = test system: PC-3
# UACC-62 = test system: UACC-62
# A498 = test system: A498
# IGROV-1 = test system: IGROV-1
# EKVX = test system: EKVX
# SF-539 = test system: SF-539
# HCT-15 = test system: HCT-15
# OVCAR-4 = test system: OVCAR-4
Structure (SMILES),GI50 (RPMI-8226),GI50 (786-0),GI50 (MDA-MB-231),GI50 (HCT-116),GI50 (SK-MEL-28),GI50 (NCI-H460),GI50 (HOP-62),GI50 (DU-145),GI50 (SNB-19),GI50 (HOP-92),GI50 (SF-295),GI50 (PC-3),GI50 (UACC-62),GI50 (A498),GI50 (IGROV-1),GI50 (EKVX),GI50 (SF-539),GI50 (HCT-15),GI50 (OVCAR-4)
CCOC(=O)/C(C#N)=N\Nc1ccc(-n2c(C)nc3ccccc3c2=O)cc1,30.9 µM (inactive),> 100 µM (inactive),> 100 µM (inactive),59.6 µM (inactive),33.2 µM (inactive),67.5 µM (inactive),> 100 µM (inactive),77.6 µM (inactive),> 100 µM (inactive),> 100 µM (inactive),56.9 µM (inactive),75.3 µM (inactive),70.3 µM (inactive),> 100 µM (inactive),51.2 µM (inactive),53.2 µM (inactive),> 100 µM (inactive),62.1 µM,–
CCOC(=O)NC(Nc1ccc(F)cc1F)(C(F)(F)F)C(F)(F)F,> 100 µM (inactive),> 100 µM (inactive),> 100 µM (inactive),> 100 µM (inactive),> 100 µM (inactive),> 100 µM (inactive),> 100 µM (inactive),> 100 µM (inactive),> 100 µM (inactive),> 100 µM (inactive),> 100 µM (inactive),> 100 µM (inactive),> 100 µM (inactive),> 100 µM (inactive),> 100 µM (inactive),> 100 µM (inactive),> 100 µM (inactive),> 100 µM,–
CSC1=N/C(=C\c2cccs2)C(=O)N1CN1CCCCC1,22.1 µM (inactive),65.6 µM (inactive),> 100 µM (inactive),52.5 µM (inactive),> 100 µM (inactive),–,> 100 µM (inactive),> 100 µM (inactive),–,28.2 µM (inactive),> 100 µM (inactive),> 100 µM (inactive),93.3 µM (inactive),> 100 µM (inactive),33.5 µM (inactive),24 µM (inactive),–,37.2 µM,–
Nc1ccc(S(=O)(=O)NCCS(=O)(=O)O)cc1,–,> 100 µM (inactive),> 100 µM (inactive),> 100 µM (inactive),> 100 µM (inactive),> 100 µM (inactive),> 100 µM (inactive),> 100 µM (inactive),> 100 µM (inactive),> 100 µM (inactive),> 100 µM (inactive),> 100 µM (inactive),> 100 µM (inactive),> 100 µM (inactive),> 100 µM (inactive),> 100 µM (inactive),–,> 100 µM,> 100 µM (inactive)
Clc1ccc(OCc2nnc3sc(-c4ccc(-c5ccc(Cl)cc5Cl)o4)nn23)cc1,> 100 µM (inactive),> 100 µM (inactive),> 100 µM (inactive),> 100 µM (inactive),> 100 µM (inactive),> 100 µM (inactive),> 100 µM (inactive),> 100 µM (inactive),> 100 µM (inactive),36.9 µM (inactive),89.1 µM (inactive),> 100 µM (inactive),–,> 100 µM (inactive),> 100 µM (inactive),> 100 µM (inactive),–,> 100 µM,> 100 µM (inactive)
COc1ccc2cc(CNCCCCCCCCNCc3ccc4cc(OC)ccc4c3)ccc2c1,1.48 µM (inactive),5.36 µM (inactive),13.7 µM (inactive),4.42 µM (inactive),5.78 µM (inactive),2.07 µM (inactive),4.97 µM (inactive),6.97 µM (inactive),4.1 µM (inactive),5.32 µM (inactive),5.3 µM (inactive),1.45 µM (inactive),2.01 µM (inactive),6.38 µM (inactive),5.21 µM (inactive),6.87 µM (inactive),–,2 µM,6.34 µM (inactive)
O=C1/C(=C/c2ccc(O)c([N+](=O)[O-])c2)CCC/C1=C\c1ccc(O)c([N+](=O)[O-])c1,13.1 µM (inactive),11.5 µM (inactive),21.9 µM (inactive),8.45 µM (inactive),7.5 µM (inactive),17.8 µM (inactive),12.5 µM (inactive),9.77 µM (inactive),11.7 µM (inactive),–,18.4 µM (inactive),13.3 µM (inactive),7.23 µM (inactive),6.55 µM (inactive),8.93 µM (inactive),22.6 µM (inactive),19.3 µM (inactive),12.4 µM,18.9 µM (inactive)
Cc1cccc(N2C(=O)C3ON(C(C(N)=O)c4ccccc4)C(c4c5ccccc5c(Cl)c5ccccc45)C3C2=O)c1C (stereo not drawn),–,9.62 µM (inactive),9.42 µM (inactive),1.34 µM (inactive),13 µM (inactive),9.71 µM (inactive),10.6 µM (inactive),10.4 µM (inactive),8.85 µM (inactive),7.89 µM (inactive),9.66 µM (inactive),7.78 µM (inactive),6.84 µM (inactive),11.9 µM (inactive),11.6 µM (inactive),9.23 µM (inactive),7.67 µM (inactive),7.38 µM,9.57 µM (inactive)
Cc1ccc(C2(c3ccc(C)cc3)SC(=C(C#N)C#N)c3ccccc32)cc1,–,> 100 µM (inactive),> 100 µM (inactive),13.2 µM (inactive),> 100 µM (inactive),> 100 µM (inactive),31.4 µM (inactive),> 100 µM (inactive),> 100 µM (inactive),> 100 µM (inactive),97.9 µM (inactive),83.9 µM (inactive),53 µM (inactive),> 100 µM (inactive),> 100 µM (inactive),> 100 µM (inactive),> 100 µM (inactive),22.5 µM,–
CCOCC(NC(=O)C(CC(C)C)NC(=O)OC(C)(C)C)C(N)=O (stereo not drawn) (Boc-Leu-Ser(Et)-NH2; configuration not given here),–,> 100 µM (inactive),> 100 µM (inactive),> 100 µM (inactive),1.31 µM (inactive),–,> 100 µM (inactive),> 100 µM (inactive),> 100 µM (inactive),> 100 µM (inactive),> 100 µM (inactive),> 100 µM (inactive),> 100 µM (inactive),> 100 µM (inactive),> 100 µM (inactive),> 100 µM (inactive),> 100 µM (inactive),> 100 µM,> 100 µM (inactive)
COc1cc(-c2c3c(cc4c2OCO4)[C@@H](Nc2ccc(-c4ccc(-c5ccc(N[C@@H]6c7cc8c(cc7C(c7cc(OC)c(O)c(OC)c7)[C@H]7C(=O)OC[C@H]67)OCO8)cc5)cc4)cc2)[C@H]2COC(=O)[C@@H]2C3)cc(OC)c1O (stereo partly drawn),2.52 µM (inactive),1.76 µM (inactive),2.19 µM (inactive),1.73 µM (inactive),1.85 µM (inactive),3.05 µM (inactive),2.58 µM (inactive),1.93 µM (inactive),2.96 µM (inactive),4.55 µM (inactive),1.77 µM (inactive),2.04 µM (inactive),–,4.62 µM (inactive),1.1 µM (active),4.51 µM (inactive),< 0.01 µM (active),1.73 µM,–
O=c1[nH]nc(Cc2ccccc2)n1/N=C/c1c(O)ccc2ccccc12,19.8 µM (inactive),16.7 µM (inactive),19.7 µM (inactive),20.2 µM (inactive),–,–,–,57 µM (inactive),18.4 µM (inactive),19.2 µM (inactive),26.9 µM (inactive),22.9 µM (inactive),29.2 µM (inactive),18.5 µM (inactive),21.2 µM (inactive),20.7 µM (inactive),19.8 µM (inactive),51.6 µM,17.2 µM (inactive)
C[N+](C)(C)CCCSc1nc2ccccc2[nH]1,> 100 µM (inactive),> 100 µM (inactive),> 100 µM (inactive),> 100 µM (inactive),> 100 µM (inactive),> 100 µM (inactive),> 100 µM (inactive),> 100 µM (inactive),> 100 µM (inactive),> 100 µM (inactive),> 100 µM (inactive),> 100 µM (inactive),> 100 µM (inactive),> 100 µM (inactive),> 100 µM (inactive),> 100 µM (inactive),–,> 100 µM,> 100 µM (inactive)
Cc1oc2c(c1C)S(=O)(=O)C(C#N)C(c1ccccc1)N2 (stereo not drawn),–,40.9 µM (inactive),> 100 µM (inactive),50 µM (inactive),> 100 µM (inactive),41 µM (inactive),> 100 µM (inactive),80.7 µM (inactive),> 100 µM (inactive),64.6 µM (inactive),78.9 µM (inactive),66.5 µM (inactive),41.4 µM (inactive),> 100 µM (inactive),> 100 µM (inactive),> 100 µM (inactive),39.6 µM (inactive),38.7 µM,29.6 µM (inactive)
COCN1C(=O)[C@@H]2C[C@@H](O)CN2C(=O)c2ccccc21,> 100 µM (inactive),> 100 µM (inactive),> 100 µM (inactive),> 100 µM (inactive),> 100 µM (inactive),> 100 µM (inactive),> 100 µM (inactive),> 100 µM (inactive),> 100 µM (inactive),> 100 µM (inactive),> 100 µM (inactive),> 100 µM (inactive),> 100 µM (inactive),> 100 µM (inactive),> 100 µM (inactive),> 100 µM (inactive),–,> 100 µM,> 100 µM (inactive)
NC(=O)/N=C1\NCCC(=O)N1CCc1c[nH]c2ccccc12,18.7 µM (inactive),24 µM (inactive),8.09 µM (inactive),12.4 µM (inactive),20.9 µM (inactive),16.3 µM (inactive),19.4 µM (inactive),21 µM (inactive),21.4 µM (inactive),–,41.2 µM (inactive),11.9 µM (inactive),18.2 µM (inactive),17.3 µM (inactive),21.2 µM (inactive),14.6 µM (inactive),15.6 µM (inactive),20 µM,19 µM (inactive)

# Source: ChEMBL document CHEMBL1201862, “PubChem BioAssay data set” (2004)
